The values below are quoted from earlier work in patent US20250255804A1, “LIQUID INJECTABLE COMPOSITIONS OF LURBINECTEDIN” (DR. REDDY’S LABORATORIES LIMITED, priority 2024, published 2025).

The conditions of the series: solubility increases at acidic pH.

On to `COc1ccc2[nH]c3c(c2c1)CCN[C@]31CS[C@@H]2c3c(OC(C)=O)c(C)c4c(c3[C@H](COC1=O)N1[C@@H]2[C@H]2c3c(cc(C)c(OC)c3O)C[C@@H]([C@@H]1O)N2C)OCO4` [lurbinectedin, Lurbinectedin], for which the solubility in water entry was “insoluble or practically insoluble in water”.
